{"source": "paper PMC11181322", "about": "“Copper(II) Complexes with Isomeric Morpholine-Substituted 2-Formylpyridine Thiosemicarbazone Hybrids as Potential Anticancer Drugs Inhibiting Both Ribonucleotide Reductase and Tubulin Polymerization: The Morpholine Position Matters” (Journal of Medicinal Chemistry, 2024)", "key": {"MES-SA/Dx5 cells [1]": {"test_system": "MES-SA/Dx5 cells", "experiment": "Intracellular ROS generation, DCF-DA assay, MES-SA/Dx5", "type": "cell-based, human", "details": "25 μM, 4 h treatment", "protocol": "(§1) ROS accumulation was evaluated in both the MES-SA and MES-SA/Dx5 cell lines by using 2′,7′-dichlorodihydrofluorescein diacetate (H2DCF-DA) as a probe. This compound enters the cells by passive diffusion, and after oxidation, it is converted to the highly fluorescent 2′,7′-dichlorofluorescein (DCF), enabling the estimation of intracellular ROS levels. ROS generation was measured after a 4 h treatment with 25 μM H2L^6 or 6; tert-butylhydroperoxide (TBHP, 25 μM) was used as a positive control.\n(§2) Figure 6 Intracellular ROS generation measured by the DCF-DA assay in MES-SA (filled bars) and MES-SA/Dx5 (lattice bars) cells, after a 4 h treatment with the indicated compounds at 25 μM: H2L^6 (gray), complex 6 (yellow), Triapine (green), and TBHP (brown). Values indicate fold change relative to the fluorescence of the cells treated with fluorescent probe alone (orange bars), following normalization to the initial fluorescence at the beginning of the incubation. Paired t test to the medium control was calculated; […]; **P < 0.01. Values were calculated from at least three independent experiments.\n(§3) The human uterine sarcoma cell lines MES-SA and the doxorubicin selected MES-SA-Dx5 were obtained from ATCC (MES-SA: No. CRL-1976, MES-SA/Dx5: No. CRL-1977) and were used for the intracellular ROS generation studies. […]"}, "mR2 RNR protein": {"target": "T1, mR2 RNR protein (Mus musculus, UniProt P11157)", "T1 construct": "made in house", "T1 sequence (P11157 1-390)": "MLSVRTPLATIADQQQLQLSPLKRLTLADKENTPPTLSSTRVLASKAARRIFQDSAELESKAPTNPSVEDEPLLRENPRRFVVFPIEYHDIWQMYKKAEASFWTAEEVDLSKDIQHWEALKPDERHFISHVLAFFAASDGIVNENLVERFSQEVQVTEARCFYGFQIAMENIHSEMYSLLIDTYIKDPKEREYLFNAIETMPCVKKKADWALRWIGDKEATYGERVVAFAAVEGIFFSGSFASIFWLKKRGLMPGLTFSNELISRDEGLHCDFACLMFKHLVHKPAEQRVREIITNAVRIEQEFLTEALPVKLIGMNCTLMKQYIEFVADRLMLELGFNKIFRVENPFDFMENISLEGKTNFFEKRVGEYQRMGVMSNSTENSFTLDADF", "design": "method as in PMID 21955844", "details": "in 3 min ref 76; cited from earlier work"}, "MES-SA cells [2]": {"test_system": "MES-SA cells", "experiment": "Intracellular ROS generation, DCF-DA assay, MES-SA", "type": "cell-based, human", "details": "25 μM, 4 h treatment", "protocol": "as §1, §2, §3"}, "[3]": {"design": "method as in PMID 32336116", "details": "copper(II) complexes of the named TSCs, measured under similar conditions ref 67; cited from earlier work"}, "MES-SA cells [4]": {"test_system": "MES-SA cells", "experiment": "Fluorescent protein-based cytotoxicity assay, MES-SA", "type": "cell-based, human", "details": "Homo sapiens, MES-SA; 120 h; ± SD; n = 3", "description": "(§4) The cytotoxic activity of proligands H2L^3–H2L^6 and their copper(II) complexes 3–6 was investigated in the MES-SA (human uterine sarcoma) and in its MDR counterpart (MES-SA/Dx5) cell lines by a fluorescent protein-based assay.[73]\n(§5) The human uterine sarcoma cell lines MES-SA and the doxorubicin selected MES-SA-Dx5 were obtained from ATCC (MES-SA: No. CRL-1976, MES-SA/Dx5: No. CRL-1977) and were used for the intracellular ROS generation studies. For cytotoxicity, we used the fluorescent cell lines MES-SA mCherry and MES-SA/Dx5 eGFP, which were created by lentiviral transductions of the respective genes.[73] The phenotype of the resistant cells was maintained by 500 nM doxorubicin treatment a week before use and was verified using cytotoxicity assays. Cells were cultivated at 37 °C, 5% CO2 in Dulbecco’s modified Eagle's Medium (DMEM, Sigma-Aldrich), supplemented with 10% fetal bovine serum, 5 mM glutamine, and 50 unit/mL penicillin and streptomycin (Thermo Fisher).\n(§6) MES-SA mCherry and MES-SA/Dx5 eGFP cell suspensions were seeded after trypsinization at 2500 cells/20 μL density on 384-well plates, containing 20 μL of completed medium. The next day, serial dilution of the compounds was prepared and added in an additional 20 μL, with or without 0.4 μM Tariquidar. Liquid handling steps were performed by a Hamilton StarLet robot. […] The mean and standard deviation of the pIC50 values were calculated and converted to IC50 values."}, "MES-SA/Dx5 cells [5]": {"test_system": "MES-SA/Dx5 cells", "experiment": "Fluorescent protein-based cytotoxicity assay, MES-SA/Dx5", "type": "cell-based, human", "description": "as §4, §5, §6"}, "MES-SA cells [6]": {"test_system": "MES-SA cells", "experiment": "dNTP pools in MES-SA cell extracts", "type": "cell-based, human", "details": "24 h", "description": "RNR reduces NDPs to their corresponding deoxy derivatives (dNDPs), which are further converted into dNTPs.[77] Therefore, we investigated the effect of the most toxic proligand H2L^6 and its copper(II) complex 6 on cellular dNTP levels, using Triapine as a control. […] Triapine also elicits a dATP pool decrease while increasing the pools of the three other dNTP species. Decreasing the dATP pool to zero can give rise to the observed cytotoxic effect upon treatment with Triapine. Complex 6 seems to affect dNTP pools by a more complex mechanism, which is nevertheless consistent with R2 inhibition.[79]\nFigure 8 Measurement of dNTP pools in MES-SA cell extracts following a 24 h treatment with proligand H2L^6, complex 6, or Triapine at the indicated concentrations. Three independent experiments were performed; error bars represent standard error; stars indicate significant changes compared to the respective control (Ctrl) at p < 0.05.\nAfter a 24 h incubation with or without drugs, MES-SA cells were washed twice with PBS and trypsinized for 5 min. […] The pellet containing dNTPs was redissolved in 50 μL of RNase-free water and stored at −20 °C. dNTP-containing samples were measured by a nucleotide incorporation-based fluorescent method.[97] We used a long synthetic oligonucleotide (197 nt) as a template, which contains a dNTP-detection site, the sole complementary base to that of the dNTP to be quantified directly adjacent to the annealed primer. […] In addition to the limiting amount of dNTP to be quantified, the polymerization reaction mix contained the other three dNTPs in large excess. The double-stranded DNA product is detected by the EvaGreen Dye. The 2X master mix for the DNA synthesis reaction contained the following: 0.275 μM primer (Merck KGaA, Darmstadt, Germany), 0.25 μM template (IDT, Coralville, Iowa, USA), 50 μM dNTP mix (excluding the dNTP to be measured in the given experiment to limit its source to the sample), and 1.25 μM EvaGreen (Biotium). […] Fluorescence amplitude data were extracted from the Bio-Rad CFX Maestro Software and analyzed using Excel and Origin. […]"}}, "data": [{"smiles": "NC(=S)NN=Cc1ncccc1N", "note": "[Triapine, 3-aminopyridine-2-carboxaldehyde thiosemicarbazone, reference compound]", "values": [{"measurement": "Intracellular ROS generation", "setting": "MES-SA/Dx5 cells [1]", "result": "failed to induce ROS"}, {"measurement": "mR2 Y• reduced", "setting": "mR2 RNR protein", "result": 100, "unit": "%"}, {"measurement": "Intracellular ROS generation", "setting": "MES-SA cells [2]", "result": "failed to induce ROS"}, {"measurement": "kobs, reduction by GSH", "setting": "[3]", "result": 0.10, "unit": "min^–1"}, {"measurement": "IC50", "setting": "MES-SA cells [4]", "result": "520 ± 100", "unit": "nM"}, {"measurement": "IC50", "setting": "MES-SA/Dx5 cells [5]; Homo sapiens, MES-SA/Dx5, 120 h, ± SD, n = 3", "result": "2800 ± 500", "unit": "nM"}, {"measurement": "SR, selectivity ratio IC50 (MES-SA)/IC50 (MES-SA/Dx5)", "setting": "MES-SA/Dx5 cells [5]; in the absence of TQ", "result": 0.18}, {"measurement": "dATP pool", "setting": "MES-SA cells [6]", "result": "decrease"}, {"measurement": "pools of the three other dNTP species", "setting": "MES-SA cells [6]", "result": "increasing"}]}]}
